In ChEMBL document CHEMBL1153705, “Evaluation and optimization of antifibrotic activity of cinnamoyl anthranilates” (Bioorg Med Chem Lett, 2009):
Active and inactive are the calls of the source. The rule behind the calls is not given here.

Columns and labels:
[1] = Antifibrotic activity in rat 1097 cells assessed as inhibition of TGF-beta-stimulated [3H]proline incorporation in to collagen at 30 uM; format: functional
[2] = species on record: Rattus norvegicus; assay: Antifibrotic activity in rat 1097 cells assessed as damaged cells at 100 uM; format: functional, cell-based
[3] = (§1) Antifibrotic activity in rat 1097 cells assessed as inhibition of TGF-beta-stimulated [3H]proline incorporation in to collagen at 100 uM; format: functional
[4] = Toxicity against rat 1097 cells at 100 uM; format: cell-based
[5] = Toxicity against rat 1097 cells at 30 uM; format: cell-based
[6] = test system: 1097; assay: Antifibrotic activity in rat 1097 cells assessed as necrotic cells at 30 uM; format: functional, cell-based
[7] = test system: 1097; assay: Antifibrotic activity in rat 1097 cells assessed as necrotic cells at 100 uM; format: functional, cell-based
[8] = test system: Rattus norvegicus; assay: Reduction in albuminuria in STZ-induced Ren2 rat at 200 mg/kg/day after 24 hrs by radioimmunoassay; format: functional, organism-based
[9] = test system: Rattus norvegicus; assay: Reduction in albuminuria in STZ-induced Ren2 rat at 400 mg/kg/day after 24 hrs by radioimmunoassay; format: functional, organism-based
[10] = species on record: Rattus norvegicus; assay: as §1; format: functional
[11] = Antifibrotic activity in rat 1097 cells assessed as inhibition of TGF-beta-stimulated [3H]proline incorporation in to collagen at 10 uM; format: functional

## C#CCCCCOc1ccc(/C=C/C(=O)Nc2ccccc2C(=O)O)cc1OC
[1]
  inhibition at 30 µM: 80%
[2]
  Activity: Active

## O=C(/C=C/c1ccc(O)c(O)c1)Nc1ccccc1C(=O)O
[3]
  inhibition at 100 µM: 90%

## COc1ccc(/C=C/C(=O)Nc2ccccc2C(N)=O)cc1OC
[3]
  inhibition at 100 µM: 35%

## COc1cc(/C=C/C(=O)Nc2ccccc2C(=O)O)ccc1OC1CCCC1
[1]
  inhibition at 30 µM: 100%
[4]
  Activity: Toxic
[5]
  Activity: Non-toxic
[2]
  Activity: Active

## CCC#CCCOc1cc(/C=C/C(=O)Nc2ccccc2C(=O)O)ccc1OC
[3]
  inhibition at 100 µM: 100%
[1]
  inhibition at 30 µM: 100%

## COc1cc(/C=C/C(=O)Nc2ccccc2C(=O)O)ccc1OC1CCCCCCC1
[6]
  Activity: Active
[7]
  Activity: Active

## COc1ccc(/C=C/C(=O)Nc2ccccc2C(=O)O)cc1OC [TRANILAST]
[3]
  inhibition at 100 µM: 70%
[1]
  inhibition at 30 µM: 40%

## C#CCOc1ccc(/C=C/C(=O)Nc2ccccc2C(=O)O)cc1OC [ASENGEPRAST]
[3]
  inhibition at 100 µM: 80%
[1]
  inhibition at 30 µM: 55%
[8]
  Activity: Active
[9]
  Activity: Active

## CCCCC#CCCOc1ccc(/C=C/C(=O)Nc2ccccc2C(=O)O)cc1OC
[6]
  Activity: Active

## O=C(/C=C/c1ccccc1)Nc1ccccc1C(=O)O
[10]
  inhibition: inactive

## COc1cc(/C=C/C(=O)Nc2ccccc2C(=O)O)ccc1OC1CCCCC1
[6]
  Activity: Active
[7]
  Activity: Active

## CC#CCOc1cc(/C=C/C(=O)Nc2ccccc2C(=O)O)ccc1OC
[3]
  inhibition at 100 µM: 80%
[1]
  inhibition at 30 µM: 75%

## C#CCCOc1cc(/C=C/C(=O)Nc2ccccc2C(=O)O)ccc1OC
[1]
  inhibition at 30 µM: 65%
[2]
  Activity: Active

## C#CCCCOc1ccc(/C=C/C(=O)Nc2ccccc2C(=O)O)cc1OC
[3]
  inhibition at 100 µM: 100%
[1]
  inhibition at 30 µM: 75%

## COc1cc(/C=C/C(=O)Nc2ccccc2C(=O)O)ccc1O
[3]
  inhibition at 100 µM: 50%

## COc1ccc(/C=C/C(=O)Nc2ccccc2)cc1OC
[3]
  inhibition at 100 µM: 50%

## C#CCCOc1ccc(/C=C/C(=O)Nc2ccccc2C(=O)O)cc1OC
[3]
  inhibition at 100 µM: 100%
[1]
  inhibition at 30 µM: 70%

## C#CCCCCOc1cc(/C=C/C(=O)Nc2ccccc2C(=O)O)ccc1OC
[3]
  inhibition at 100 µM: 100%
[1]
  inhibition at 30 µM: 95%

## COc1cc(/C=C/C(=O)Nc2ccccc2C(=O)O)ccc1OC1CCC1
[11]
  inhibition at 10 µM: 60%
[2]
  Activity: Active

## CC#CCOc1ccc(/C=C/C(=O)Nc2ccccc2C(=O)O)cc1OC
[3]
  inhibition at 100 µM: 90%
[1]
  inhibition at 30 µM: 65%

## COc1cccc(/C=C/C(=O)Nc2ccccc2C(=O)O)c1
[3]
  inhibition at 100 µM: 40%

## C#CCCCOc1cc(/C=C/C(=O)Nc2ccccc2C(=O)O)ccc1OC
[1]
  inhibition at 30 µM: 80%
[2]
  Activity: Active

## CCC#CCOc1ccc(/C=C/C(=O)Nc2ccccc2C(=O)O)cc1OC
[3]
  inhibition at 100 µM: 100%
[1]
  inhibition at 30 µM: 100%
[4]
  Activity: Toxic
[5]
  Activity: Non-toxic

## COc1ccc(/C=C/C(=O)Nc2ccccc2C(=O)O)cc1
[10]
  inhibition: inactive

## CCC#CCOc1cc(/C=C/C(=O)Nc2ccccc2C(=O)O)ccc1OC
[3]
  inhibition at 100 µM: 100%
[1]
  inhibition at 30 µM: 90%
[4]
  Activity: Toxic
[5]
  Activity: Non-toxic

## C#CCOc1cc(/C=C/C(=O)Nc2ccccc2C(=O)O)ccc1OC
[3]
  inhibition at 100 µM: 90%
[1]
  inhibition at 30 µM: 60%

## COc1cc(/C=C/C(=O)Nc2ccccc2C(=O)O)ccc1OC1CCCCCC1
[6]
  Activity: Active
[7]
  Activity: Active

## CCCCC#CCCOc1cc(/C=C/C(=O)Nc2ccccc2C(=O)O)ccc1OC
[6]
  Activity: Active
[7]
  Activity: Active

## COc1ccc(CCC(=O)Nc2ccccc2C(=O)O)cc1OC
[10]
  inhibition: inactive

## COc1ccc(/C=C/C(=O)Nc2ccccc2C(=O)O)cc1O
[3]
  inhibition at 100 µM: 50%

## CCC#CCCOc1ccc(/C=C/C(=O)Nc2ccccc2C(=O)O)cc1OC
[1]
  inhibition at 30 µM: 100%
[2]
  Activity: Active
